Laboratory results published in ChEMBL document CHEMBL6092143, “Synthesis and evaluation of lipoic acid - donepezil hybrids for Alzheimer's disease using a straightforward strategy” (Bioorg Med Chem Lett, 2024).
The source made the active and inactive calls. The calls are words filed in the database; no cut-off is given here.

Tests used:
[1] = Antioxidant activity assessed as DPPH radical scavenging activity incubated for 2 hrs under dark condition by absorbance based assay; assay type: functional
SK-N-BE(2) [2] = experiment: Inhibition of t-BHP-induced ROS production in human SK-N-BE(2) cells at 100 uM incubated for 3 hrs by DCFH-DA probe based analysis; assay type: functional, cell-based
[3] = Antioxidant activity assessed as ABTS radical scavenging activity measured after 6 mins by absorbance based assay; assay type: functional
[4] = Antioxidant activity assessed as trolox equivalent of ORAC radical scavenging activity incubated for 15 mins by fluorescence based assay; assay type: functional
HepG2 = experiment: Cytotoxicity against human HepG2 cells upto 100 uM incubated for 3 hrs by MTT assay; settings: hepg2, 3 h
SK-N-BE(2) [5] = experiment: Cytotoxicity against human SK-N-BE(2) cells upto 100 uM incubated for 3 hrs by MTT assay; assay type: toxicity, cell-based
Acetylcholinesterase = Acetylcholinesterase (Homo sapiens, UniProt P22303); experiment: Inhibition of human erythrocyte AChE using acetylthiocholine iodide as substrate preincubated for 10 mins followed by substrate addition measured after 15 mins by Ellman's method
Sequence of Acetylcholinesterase (P22303 whole entry): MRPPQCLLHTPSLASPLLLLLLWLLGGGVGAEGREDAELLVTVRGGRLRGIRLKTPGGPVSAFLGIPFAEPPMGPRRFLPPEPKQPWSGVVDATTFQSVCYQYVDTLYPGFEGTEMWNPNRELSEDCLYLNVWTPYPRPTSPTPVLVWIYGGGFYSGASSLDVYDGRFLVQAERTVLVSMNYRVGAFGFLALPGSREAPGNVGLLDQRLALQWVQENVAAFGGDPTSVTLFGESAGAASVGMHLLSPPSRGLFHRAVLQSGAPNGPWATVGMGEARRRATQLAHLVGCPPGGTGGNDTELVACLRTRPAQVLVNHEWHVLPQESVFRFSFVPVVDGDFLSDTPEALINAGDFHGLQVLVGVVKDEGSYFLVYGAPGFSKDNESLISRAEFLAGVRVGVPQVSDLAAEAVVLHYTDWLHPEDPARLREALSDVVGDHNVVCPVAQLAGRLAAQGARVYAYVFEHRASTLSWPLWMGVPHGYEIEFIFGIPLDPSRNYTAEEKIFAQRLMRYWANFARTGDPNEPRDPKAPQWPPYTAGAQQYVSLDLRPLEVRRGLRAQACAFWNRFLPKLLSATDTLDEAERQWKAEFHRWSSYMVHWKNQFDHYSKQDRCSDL

Cholinesterase = Cholinesterase (Homo sapiens, UniProt P06276); experiment: Inhibition of human BChE by Ellman's method
Sequence of Cholinesterase (P06276 whole entry): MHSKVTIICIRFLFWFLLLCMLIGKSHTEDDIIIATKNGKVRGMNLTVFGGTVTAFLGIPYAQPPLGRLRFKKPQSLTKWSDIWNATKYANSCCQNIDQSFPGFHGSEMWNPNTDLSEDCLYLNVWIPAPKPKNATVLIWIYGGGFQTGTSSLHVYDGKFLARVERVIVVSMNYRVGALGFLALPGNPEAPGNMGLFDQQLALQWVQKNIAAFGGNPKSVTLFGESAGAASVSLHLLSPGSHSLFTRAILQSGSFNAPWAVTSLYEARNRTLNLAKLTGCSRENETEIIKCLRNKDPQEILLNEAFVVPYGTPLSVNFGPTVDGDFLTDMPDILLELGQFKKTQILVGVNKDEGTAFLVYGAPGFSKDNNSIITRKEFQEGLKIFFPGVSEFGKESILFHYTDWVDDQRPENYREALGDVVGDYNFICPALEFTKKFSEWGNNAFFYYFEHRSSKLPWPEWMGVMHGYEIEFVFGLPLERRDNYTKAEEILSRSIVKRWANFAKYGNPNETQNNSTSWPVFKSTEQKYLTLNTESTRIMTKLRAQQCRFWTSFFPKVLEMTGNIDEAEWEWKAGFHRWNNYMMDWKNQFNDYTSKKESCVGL

[6] = Solubility of compound; assay type: physicochemical

In the case of `Cc1c(C)c2c(c(C)c1O)CC[C@@](C)(CCC[C@H](C)CCC[C@H](C)CCCC(C)C)O2` [ALPHA-TOCOPHEROL], the EC50 [1] is reported as 27.5 µM, the “ROS inhibition activity (qualitative)” value (SK-N-BE(2) [2]) is reported as “Active” and the EC50 [3] is reported as 15.5 µM. The Activity [4] was 1, the Activity (HepG2) was “Non-toxic” and the Activity (SK-N-BE(2) [5]) was “Non-toxic”.

For `O=C(O)CCCC[C@@H]1CCSS1` [THIOCTIC ACID], the “ROS inhibition activity (qualitative)” value (SK-N-BE(2) [2]) was “Active”, the Activity (HepG2) was “Non-toxic” and the Activity (SK-N-BE(2) [5]) was “Non-toxic”.

In the case of `COc1cc2c(cc1OC)C(=O)C(CC1CCN(Cc3ccccc3)CC1)C2` (stereo unspecified) [DONEPEZIL], the EC50 [1] is reported as over 1000 µM, the “ROS inhibition activity (qualitative)” value (SK-N-BE(2) [2]) is reported as “inactive” and the EC50 [3] is reported as over 1000 µM. The Activity [4] was under 0.5, the Activity (HepG2) was “Non-toxic” and the Activity (SK-N-BE(2) [5]) was “Non-toxic”.

In the case of `COc1cc2c(cc1O)C(=O)C(CC1CCN(Cc3ccccc3)CC1)C2` (stereo unspecified), the IC50 (Acetylcholinesterase) is reported as 872 nM, the EC50 [1] is reported as over 400 µM and the “ROS inhibition activity (qualitative)” value (SK-N-BE(2) [2]) is reported as “inactive”. The IC50 (Cholinesterase) was 34.5 µM, the EC50 [3] was 152 µM and the Activity [4] was 9.4. The Activity (HepG2) was “Non-toxic” and the Activity (SK-N-BE(2) [5]) was “Non-toxic”.

With `COc1cc2c(cc1O)CC(CC1CCN(Cc3ccccc3)CC1)C2=O` (stereo unspecified) the IC50 (Acetylcholinesterase) was 773 nM, the EC50 [1] was 32.5 µM and the IC50 (Cholinesterase) was 35.8 µM. For the same compound, the EC50 [3] was 8.5 µM and the Activity [4] was 2.1.

With `O=C1c2cc(O)c(O)cc2CC1CC1CCN(Cc2ccccc2)CC1` (stereo unspecified) the IC50 (Acetylcholinesterase) was 1810 nM, the EC50 [1] was 29.5 µM and the “ROS inhibition activity (qualitative)” value (SK-N-BE(2) [2]) was “Active; Activity Comparable To Vitamin E”. For the same compound, the IC50 (Cholinesterase) was 246 µM, the EC50 [3] was 12.3 µM and the Activity [4] was 2.2. The solubility [6] was “soluble”, the Activity (HepG2) was “Non-toxic” and the Activity (SK-N-BE(2) [5]) was “Non-toxic”.

With `COc1cc2c(cc1OCCCCCC1CCSS1)CC(CC1CCN(Cc3ccccc3)CC1)C2=O` (stereo unspecified) the IC50 (Acetylcholinesterase) was 9.12 nM, the EC50 [1] was over 400 µM and the “ROS inhibition activity (qualitative)” value (SK-N-BE(2) [2]) was “Active; More Pronounced Effect Than Lipoic Acid”. For the same compound, the IC50 (Cholinesterase) was 3.26 µM, the EC50 [3] was over 400 µM and the Activity [4] was under 0.5. For the same compound, the solubility [6] was “Insoluble”, the Activity (HepG2) was “Non-toxic” and the Activity (SK-N-BE(2) [5]) was “Non-toxic”.

For `O=c1c(O)c(-c2ccc(O)c(O)c2)oc2cc(O)cc(O)c12` [QUERCETIN], the EC50 [1] was 13.8 µM, the EC50 [3] was 3.4 µM and the Activity [4] was 4.

With `COc1cc2c(cc1OC(=O)CCCCC1CCSS1)C(=O)C(CC1CCN(Cc3ccccc3)CC1)C2` (stereo unspecified) the IC50 (Acetylcholinesterase) was 27.8 nM, the EC50 [1] was over 400 µM and the “ROS inhibition activity (qualitative)” value (SK-N-BE(2) [2]) was “inactive”. For the same compound, the IC50 (Cholinesterase) was 3.99 µM, the EC50 [3] was over 400 µM and the Activity [4] was under 0.5. The solubility [6] was “Insoluble”, the Activity (HepG2) was “Non-toxic” and the Activity (SK-N-BE(2) [5]) was “Non-toxic”.

With `COc1cc2c(cc1OCCCCCC1CCSS1)C(=O)C(CC1CCN(Cc3ccccc3)CC1)C2` (stereo unspecified) the IC50 (Acetylcholinesterase) was 7.63 nM, the EC50 [1] was over 400 µM and the “ROS inhibition activity (qualitative)” value (SK-N-BE(2) [2]) was “Active; More Pronounced Effect Than Lipoic Acid”. It also gave an IC50 (Cholinesterase) of 1.48 µM, an EC50 [3] of over 400 µM and an Activity [4] of under 0.5. For the same compound, the Activity (HepG2) was “Non-toxic” and the Activity (SK-N-BE(2) [5]) was “Non-toxic”.
